According to patent US8324390B2, “Tetrazole-substituted anthranilamides as pesticides” (Bayer CropScience AG, priority 2008, dated 2012):
Like-named read-outs stand apart in the source and are kept apart here.

Key:
[1] = log P determination by HPLC (EEC Directive 79/831 Annex V.A8); assay type: physicochemical
Experimental: The measurements were carried out using an Agilent 1100 LC system with a 50*4.6 Zorbax Eclipse C18 1.8 μm column (oven temperature 55° C., flow rate 2.0 ml/min).
The following mobile phases were used:
Mobile phase A: acetonitrile+1000 μl of formic acid/l
Mobile phase B: Millipore water+900 μl of formic acid/l

[2] = system: green peach aphid (Myzus persicae); assay: Myzus test (MYZUPE spray treatment); assay type: in vivo; settings: Myzus persicae, foliar, read-out: effect in % (aphids killed)
Source text: Solvent: 78 parts by weight of acetone
(§1) Solvent: 78.0 parts by weight of acetone

[3] = system: caterpillars of the armyworm (Spodoptera frugiperda); assay: Spodoptera frugiperda test (SPODFR spray treatment); assay type: in vivo; settings: Spodoptera frugiperda, foliar, read-out: effect in % (caterpillars killed)
Source text: as §1

[4] = system: larvae of the mustard beetle (Phaedon cochleariae); assay: Phaedon test (PHAECO spray treatment); settings: Phaedon cochleariae, in Brassica rapa, foliar, read-out: effect in % (beetle larvae killed)
[5] = reversed-phase HPLC, Zorbax Eclipse C18 column, determined by HPLC according to EEC Directive 79/831 Annex V.A8, read-out: log P
[6] = application rate 100 g/ha, Chinese cabbage leaf discs
[7] = application rate 100 g/ha, maize leaf discs
[8] = reversed-phase HPLC, Zorbax Eclipse C18 column, by HPLC according to EEC Directive 79/831 Annex V.A8, read-out: log P

Row | chromatographic logP [1, 5] | chromatographic logP [1, 8] | SMILES | chromatographic logP ([1]; log P) | pest or weed control at 100 g/ha ([2]; in Brassica rapa) [%] | pest or weed control at 100 g/ha ([3]; in Zea mays) [%] | pest or weed control at 100 g/ha [4] [%] | pest or weed control at 100 g/ha [2, 6] [%] | pest or weed control at 100 g/ha [3, 7] [%] | pest or weed control at 20 g/ha ([2]; in Brassica rapa) [%]
1 | 3.93 |  | Cc1cc(Cl)cc(C(=O)NC(C)C)c1NC(=O)c1cc(Cn2nnc(C(F)(F)F)n2)nn1-c1ccccc1Cl [Example 427] |  |  |  | ≥ 80 | ≥ 80 | ≥ 80 | 
2 | 3.61 |  | Cc1cc(C#N)cc(C(=O)NCC2CC2)c1NC(=O)c1cc(Cn2nnc(C(F)(F)F)n2)nn1-c1ccccc1Cl [Example 440] |  |  |  | ≥ 80 | ≥ 80 | ≥ 80 | 
3 | 3.07 |  | CNC(=O)c1cc(I)cc(C)c1NC(=O)c1cc(Cn2nnnc2C(F)(F)F)nn1-c1ncccc1C(F)(F)F [Example 452] |  |  |  | ≥ 80 | ≥ 80 | ≥ 80 | 
4 |  | 2.85 | Cc1cc(C#N)cc(C(=O)NC2CC2)c1NC(=O)c1cc(Cn2nnc(C(F)(F)F)n2)nn1-c1ncccc1Br [Example 333] |  |  |  | ≥ 80 | ≥ 80 | ≥ 80 | 
5 |  | 2.76 | Cc1cc(Cl)cc(C(N)=O)c1NC(=O)c1cc(Cn2nnc(C(F)(F)F)n2)nn1-c1ncccc1Br [Example 330] |  |  |  | ≥ 80 | ≥ 80 | ≥ 80 | 
6 | 3.25 |  | Cc1cc(C#N)cc(C(=O)NCC2CC2)c1NC(=O)c1cc(Cn2nnnc2C(F)(F)F)nn1-c1ccccc1Cl [Example 526] |  |  |  | ≥ 80 | ≥ 80 | ≥ 80 | 
7 | 3.07 |  | Cc1cc(C#N)cc(C(=O)NC(C)(C)C)c1NC(=O)c1cc(Cn2nnnc2C(F)(F)F)nn1-c1ncccc1Br [Example 483] |  |  |  | ≥ 80 | ≥ 80 | ≥ 80 | 
8 | 3.65 |  | Cc1cc(Br)cc(C(=O)NC(C)(C)C)c1NC(=O)c1cc(Cn2nnnc2C(F)(F)F)nn1-c1ncccc1Br [Example 507] |  |  |  | ≥ 80 | ≥ 80 | ≥ 80 | 
9 | 3.23 |  | CCNC(=O)c1cc(C#N)cc(C)c1NC(=O)c1cc(Cn2nnc(C(F)(F)C(F)(F)F)n2)nn1-c1ncccc1Br [Example 426] |  |  |  | ≥ 80 | ≥ 80 | ≥ 80 | 
10 | 3.14 |  | Cc1cc(Cl)cc(C(=O)NC(C)C)c1NC(=O)c1cc(Cn2nnnc2C(F)(F)F)nn1-c1ncccc1Br [Example 485] |  |  |  | ≥ 80 | ≥ 80 | ≥ 80 | 
11 |  | 3.96 | CSC[C@H](C)NC(=O)c1cc(C#N)cc(C)c1NC(=O)c1cc(Cn2nnc(C(F)(C(F)(F)F)C(F)(F)F)n2)nn1-c1ncccc1Cl [Example 376] |  |  |  | ≥ 80 | ≥ 80 | ≥ 80 | 
12 | 3.16 |  | CCNC(=O)c1cc(I)cc(C)c1NC(=O)c1cc(Cn2nnnc2C(F)(F)F)nn1-c1ncccc1Br [Example 503] |  |  |  | ≥ 80 | ≥ 80 | ≥ 80 | 
13 |  | 3.15 | CNC(=O)c1cc(C#N)cc(C)c1NC(=O)c1cc(Cn2nnc(C(F)(F)F)n2)nn1-c1ccccc1Br [Example 349] |  |  |  | ≥ 80 | ≥ 80 | ≥ 80 | 
14 |  | 2.88 | CCNC(=O)c1cc(C#N)cc(C)c1NC(=O)c1cc(Cn2nnc(C(F)(F)F)n2)nn1-c1ncccc1Br [Example 322] |  |  |  | ≥ 80 | ≥ 80 | ≥ 80 | 
15 |  | 3.5 | CNC(=O)c1cc(Cl)cc(C)c1NC(=O)c1cc(Cn2nnc(C(F)(F)F)n2)nn1-c1ccccc1Br [Example 345] |  |  |  | ≥ 80 | ≥ 80 | ≥ 80 | 

Further lines, the molecule ahead of its results:

Row | SMILES | chromatographic logP [1, 5] | chromatographic logP [1, 8] | chromatographic logP ([1]; log P) | pest or weed control at 100 g/ha ([2]; in Brassica rapa) [%] | pest or weed control at 100 g/ha ([3]; in Zea mays) [%] | pest or weed control at 100 g/ha [4] [%] | pest or weed control at 100 g/ha [2, 6] [%] | pest or weed control at 100 g/ha [3, 7] [%] | pest or weed control at 20 g/ha ([2]; in Brassica rapa) [%]
16 | CC(NC(=O)c1cc(Cl)cc(Cl)c1NC(=O)c1cc(Cn2nnnc2C(F)(F)C(F)(F)F)nn1-c1ncccc1Cl)C1CC1 (stereo not shown) [Example 448] |  |  | 3.81 | ≥ 80 | ≥ 80 | ≥ 80 |  |  | 
17 | CC(C)NC(=O)c1cc(Cl)cc(Cl)c1NC(=O)c1cc(Cn2nnc(C(F)F)n2)nn1-c1ncccc1Cl [Example 286] |  |  | 2.91 | ≥ 80 | ≥ 80 | ≥ 80 |  |  | 
18 | Cc1cc(Cl)cc(C(=O)NC2CC2)c1NC(=O)c1cc(Cn2nnnc2C(F)F)nn1-c1ncccc1Cl [Example 461] |  |  | 2.5 |  | ≥ 80 | ≥ 80 |  |  | ≥ 80
19 | CNC(=O)c1cc(Cl)cc(C)c1NC(=O)c1cc(Cn2nnnc2C(F)(F)F)nn1-c1ncccc1Cl [Example 161] |  |  | 2.63 | ≥ 80 | ≥ 80 | ≥ 80 |  |  | 
20 | Cc1cc(C#N)cc(C(=O)NC(C)(C)C)c1NC(=O)c1cc(Cn2nnc(C(F)(F)F)n2)nn1-c1ncccc1Cl [Example 15] |  |  | 3.4 | ≥ 80 | ≥ 80 | ≥ 80 |  |  | 
21 | Cc1cc(Cl)cc(C(=O)NC2CC2)c1NC(=O)c1cc(Cn2nnnc2C(F)(F)C(F)(F)F)nn1-c1ncccc1Cl [Example 200] |  |  | 3.32 | ≥ 80 | ≥ 80 | ≥ 80 |  |  | 
22 | Cc1cc(Br)cc(C(=O)NCC#N)c1NC(=O)c1cc(Cn2nnc(C(F)(F)F)n2)nn1-c1ncccc1Cl [Example 52] |  |  | 3.02 | ≥ 80 | ≥ 80 | ≥ 80 |  |  | 
23 | Cc1cc(Br)cc(C(N)=O)c1NC(=O)c1cc(Cn2nnc(C(F)(F)F)n2)nn1-c1ncccc1Cl [Example 44] |  |  | 2.81 | ≥ 80 | ≥ 80 | ≥ 80 |  |  | 
24 | Cc1cc(C#N)cc(C(=O)NC(C)(C)C)c1NC(=O)c1cc(Cn2nnc(C3CC3)n2)nn1-c1ncccc1Cl [Example 105] |  |  | 2.93 | ≥ 80 | ≥ 80 | ≥ 80 |  |  | 
25 | Cc1cc(Cl)cc(C(=O)NC2CC2)c1NC(=O)c1cc(Cn2nnnc2C(F)(F)F)nn1-c1ncccc1Cl [Example 163] |  |  | 2.89 | ≥ 80 | ≥ 80 | ≥ 80 |  |  | 
26 | COCC(C)NC(=O)c1cc(C#N)cc(C)c1NC(=O)c1cc(Cn2nnc(C(F)(F)F)n2)nn1-c1ncccc1Cl (stereo not shown) [Example 98] |  |  | 2.95 | ≥ 80 | ≥ 80 | ≥ 80 |  |  | 
27 | Cc1cc(F)cc(C(=O)NCC#N)c1NC(=O)c1cc(Cn2nnc(C(F)(F)F)n2)nn1-c1ncccc1Cl [Example 53] |  |  | 2.67 | ≥ 80 | ≥ 80 | ≥ 80 |  |  | 
28 | Cc1cc(Cl)cc(C(N)=O)c1NC(=O)c1cc(Cn2nnc(C(F)(F)F)n2)nn1-c1ncccc1C(F)(F)F [Example 238] |  | 2.97 |  |  |  | ≥ 80 | ≥ 80 | ≥ 80 | 
29 | C=C(C)CNC(=O)c1cc(C#N)cc(C)c1NC(=O)c1cc(Cn2nnc(C(F)(F)F)n2)nn1-c1ncccc1Cl [Example 338] |  |  | 3.21 | ≥ 80 | ≥ 80 | ≥ 80 |  |  | 
30 | CNC(=O)c1cc(C#N)cc(C)c1NC(=O)c1cc(Cn2nnc(C(F)(F)F)n2)nn1-c1ccccc1Cl [Example 310] |  | 3.09 |  |  |  | ≥ 80 | ≥ 80 | ≥ 80 | 
31 | CCNC(=O)c1cc(C#N)cc(C)c1NC(=O)c1cc(Cn2nnc(C(F)(F)F)n2)nn1-c1ncccc1Cl [Example 21] |  |  | 2.85 | ≥ 80 | ≥ 80 | ≥ 80 |  |  | 
32 | Cc1cc(I)cc(C(=O)NC(C)(C)C)c1NC(=O)c1cc(Cn2nnnc2C(F)(F)F)nn1-c1ncccc1Cl [Example 183] |  |  | 3.74 | ≥ 80 | ≥ 80 | ≥ 80 |  |  | 
33 | Cc1cc(C#N)cc(C(=O)NC(C)C)c1NC(=O)c1cc(Cn2nnnc2C(F)(F)F)nn1-c1ncccc1Cl [Example 165] |  |  | 2.72 | ≥ 80 | ≥ 80 | ≥ 80 |  |  | 
34 | Cc1cc(C#N)cc(C(=O)NCC2CC2)c1NC(=O)c1cc(Cn2nnc(C(F)(F)F)n2)nn1-c1ncccc1Cl [Example 23] |  |  | 3.13 | ≥ 80 | ≥ 80 | ≥ 80 |  |  | 
